According to patent US9738634B2, “Heterocyclic amide compound and herbicide” (SYNGENTA PARTICIPATIONS AG, priority 2013, dated 2017):

What was measured:
Format in all cases: in vivo
Details in all cases: treatment dosage 320 g/ha
green foxtail [1] = experiment: Test Example 4: weedkilling efficacy by foliar treatment; E: green foxtail
How it was run: (§1)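 Seeds are spot-sown into sterilized diluvial soil and covered with about 1.5 cm of soil. After 14 days' greenhouse growth at 25 to 30° C, plants are sprayed on stems and leaves with diluted emulsion at the stated g/ha rate, then scored at 3 weeks.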

wheat [2] = experiment: Test Example 3: soil treatment, effect on crop; e: wheat
How it was run: (§2)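 Crop and weed responses were judged three weeks after a uniform surface spray of the water-diluted emulsion at the given g/ha rate. Seeds sat beneath about 1.5 cm of sterilized diluvial soil, and boxes stood in a greenhouse at 25 to 30° C.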

bulrush [3] = experiment: Test Example 2: weedkilling efficacy, growth period weed treatment in the submerged state; B: bulrush
How it was run: (§3)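 Barnyard grass, bulrush and oval-leafed pondweed sown in alluvial soil under 4 cm flooding, greenhouse 25 to 30° C. At 1-2 leaf stage, water-diluted emulsion applied to the water surface at stated g/ha dosages; effects scored 3 weeks later.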

black-grass [4] = experiment: Test Example 3: weedkilling efficacy through soil treatment; H: black-grass
How it was run: as §2

wild oat [5] = experiment: Test Example 4: weedkilling efficacy by foliar treatment; G: wild oat
How it was run: as §1

Italian ryegrass [6] = experiment: Test Example 3: weedkilling efficacy through soil treatment; I: Italian ryegrass
How it was run: as §2

Italian ryegrass [7] = experiment: Test Example 4: weedkilling efficacy by foliar treatment; I: Italian ryegrass
How it was run: as §1

crabgrass [8] = experiment: Test Example 4: weedkilling efficacy by foliar treatment; D: crabgrass
How it was run: as §1

oval-leafed pondweed [9] = experiment: Test Example 1: weedkilling efficacy, preemergent weed treatment in the submerged state; C: oval-leafed pondweed
How it was run: (§4)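 Pots of alluvial soil flooded 4 cm deep, sown with barnyard grass, bulrush and oval-leafed pondweed and transplanted with 2.5-leaf rice. Emulsified compound applied to the water surface on sowing day at stated g/ha; greenhouse 25–30 °C, effects assessed 3 weeks after treatment.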

wild oat [10] = experiment: Test Example 3: weedkilling efficacy through soil treatment; G: wild oat
How it was run: as §2

beet [11] = experiment: Test Example 3: soil treatment, effect on crop; f: beet
How it was run: as §2

common wind-grass [12] = experiment: Test Example 4: weedkilling efficacy by foliar treatment; J: common wind-grass
How it was run: as §1

transplanted rice = experiment: Test Example 1: preemergent weed treatment in the submerged state, effect on crop; a: transplanted rice
How it was run: as §4

black-grass [13] = experiment: Test Example 4: weedkilling efficacy by foliar treatment; H: black-grass
How it was run: as §1

common wind-grass [14] = experiment: Test Example 3: weedkilling efficacy through soil treatment; J: common wind-grass
How it was run: as §2

soybean [15] = experiment: Test Example 3: soil treatment, effect on crop; d: soybean
How it was run: as §2

rapeseed [16] = experiment: Test Example 4: foliar treatment, effect on crop; g: rapeseed
How it was run: as §1

directly sown rice [17] = experiment: Test Example 4: foliar treatment, effect on crop; b: directly sown rice
How it was run: as §1

chickweed [18] = experiment: Test Example 4: weedkilling efficacy by foliar treatment; N: chickweed
How it was run: as §1

green foxtail [19] = experiment: Test Example 3: weedkilling efficacy through soil treatment; E: green foxtail
How it was run: as §2

corn [20] = experiment: Test Example 4: foliar treatment, effect on crop; c: corn
How it was run: as §1

birds-eye speedwell [21] = experiment: Test Example 3: weedkilling efficacy through soil treatment; p: birds-eye speedwell
How it was run: as §2

soybean [22] = experiment: Test Example 4: foliar treatment, effect on crop; d: soybean
How it was run: as §1

barnyard grass [23] = experiment: Test Example 3: weedkilling efficacy through soil treatment; F: barnyard grass
How it was run: as §2

barnyard grass [24] = experiment: Test Example 4: weedkilling efficacy by foliar treatment; F: barnyard grass
How it was run: as §1

Indian mallow [25] = experiment: Test Example 3: weedkilling efficacy through soil treatment; K: Indian mallow
How it was run: as §2

crabgrass [26] = experiment: Test Example 3: weedkilling efficacy through soil treatment; D: crabgrass
How it was run: as §2

chickweed [27] = experiment: Test Example 3: weedkilling efficacy through soil treatment; N: chickweed
How it was run: as §2

catchweed = experiment: Test Example 4: weedkilling efficacy by foliar treatment; O: catchweed
How it was run: as §1

wheat [28] = experiment: Test Example 4: foliar treatment, effect on crop; e: wheat
How it was run: as §1

oval-leafed pondweed [29] = experiment: Test Example 2: weedkilling efficacy, growth period weed treatment in the submerged state; C: oval-leafed pondweed
How it was run: as §3

Indian mallow [30] = experiment: Test Example 4: weedkilling efficacy by foliar treatment; K: Indian mallow
How it was run: as §1

beet [31] = experiment: Test Example 4: foliar treatment, effect on crop; f: beet
How it was run: as §1

barnyard grass [32] = experiment: Test Example 1: weedkilling efficacy, preemergent weed treatment in the submerged state; A: barnyard grass
How it was run: as §4

redroot pigweed [33] = experiment: Test Example 4: weedkilling efficacy by foliar treatment; L: redroot pigweed
How it was run: as §1

rapeseed [34] = experiment: Test Example 3: soil treatment, effect on crop; g: rapeseed
How it was run: as §2

directly sown rice [35] = experiment: Test Example 3: soil treatment, effect on crop; b: directly sown rice
How it was run: as §2

fig-leafed goosefoot [36] = experiment: Test Example 4: weedkilling efficacy by foliar treatment; M: fig-leafed goosefoot
How it was run: as §1

birds-eye speedwell [37] = experiment: Test Example 4: weedkilling efficacy by foliar treatment; p: birds-eye speedwell
How it was run: as §1

bulrush [38] = experiment: Test Example 1: weedkilling efficacy, preemergent weed treatment in the submerged state; B: bulrush
How it was run: as §4

corn [39] = experiment: Test Example 3: soil treatment, effect on crop; c: corn
How it was run: as §2

redroot pigweed [40] = experiment: Test Example 3: weedkilling efficacy through soil treatment; L: redroot pigweed
How it was run: as §2

fig-leafed goosefoot [41] = experiment: Test Example 3: weedkilling efficacy through soil treatment; M: fig-leafed goosefoot
How it was run: as §2

barnyard grass [42] = experiment: Test Example 2: weedkilling efficacy, growth period weed treatment in the submerged state; A: barnyard grass
How it was run: as §3

SMILES: COc1cc(C(F)(F)F)cc(NC(=O)C(C)(C)N2COC(C)=C(c3ccccc3)C2=O)n1 [B-2-49]
- E (green foxtail) weedkilling efficacy grade (green foxtail [1]): 5 (weed kill ratio 90% or more, (practically complete withering))
- e (wheat) effect on crop grade (wheat [2]): 0 (weed kill ratio 5% or less (practically no effect))
- B (bulrush) weedkilling efficacy grade (bulrush [3]): 5 (weed kill ratio 90% or more, (practically complete withering))
- H (black-grass) weedkilling efficacy grade (black-grass [4]): 5 (weed kill ratio 90% or more, (practically complete withering))
- G (wild oat) weedkilling efficacy grade (wild oat [5]): 3 (weed kill ratio 40% or more, less than 70%)
- I (Italian ryegrass) weedkilling efficacy grade (Italian ryegrass [6]): 5 (weed kill ratio 90% or more, (practically complete withering))
- I (Italian ryegrass) weedkilling efficacy grade (Italian ryegrass [7]): 1 (weed kill ratio 5% or more, less than 20%)
- D (crabgrass) weedkilling efficacy grade (crabgrass [8]): 5 (weed kill ratio 90% or more, (practically complete withering))
- C (oval-leafed pondweed) weedkilling efficacy grade (oval-leafed pondweed [9]): 5 (weed kill ratio 90% or more, (practically complete withering))
- G (wild oat) weedkilling efficacy grade (wild oat [10]): 3 (weed kill ratio 40% or more, less than 70%)
- f (beet) effect on crop grade (beet [11]): 3 (weed kill ratio 40% or more, less than 70%)
- J (common wind-grass) weedkilling efficacy grade (common wind-grass [12]): 4 (weed kill ratio 70% or more, less than 90%)
- a (transplanted rice) effect on crop grade (transplanted rice): 3 (weed kill ratio 40% or more, less than 70%)
- H (black-grass) weedkilling efficacy grade (black-grass [13]): 3 (weed kill ratio 40% or more, less than 70%)
- J (common wind-grass) weedkilling efficacy grade (common wind-grass [14]): 5 (weed kill ratio 90% or more, (practically complete withering))
- d (soybean) effect on crop grade (soybean [15]): 0 (weed kill ratio 5% or less (practically no effect))
- g (rapeseed) effect on crop grade (rapeseed [16]): 3 (weed kill ratio 40% or more, less than 70%)
- b (directly sown rice) effect on crop grade (directly sown rice [17]): 0 (weed kill ratio 5% or less (practically no effect))
- N (chickweed) weedkilling efficacy grade (chickweed [18]): 3 (weed kill ratio 40% or more, less than 70%)
- E (green foxtail) weedkilling efficacy grade (green foxtail [19]): 5 (weed kill ratio 90% or more, (practically complete withering))
- c (corn) effect on crop grade (corn [20]): 3 (weed kill ratio 40% or more, less than 70%)
- P (birds-eye speedwell) weedkilling efficacy grade (birds-eye speedwell [21]): 5 (weed kill ratio 90% or more, (practically complete withering))
- d (soybean) effect on crop grade (soybean [22]): 3 (weed kill ratio 40% or more, less than 70%)
- F (barnyard grass) weedkilling efficacy grade (barnyard grass [23]): 5 (weed kill ratio 90% or more, (practically complete withering))
- F (barnyard grass) weedkilling efficacy grade (barnyard grass [24]): 4 (weed kill ratio 70% or more, less than 90%)
- K (Indian mallow) weedkilling efficacy grade (Indian mallow [25]): 1 (weed kill ratio 5% or more, less than 20%)
- D (crabgrass) weedkilling efficacy grade (crabgrass [26]): 5 (weed kill ratio 90% or more, (practically complete withering))
- N (chickweed) weedkilling efficacy grade (chickweed [27]): 4 (weed kill ratio 70% or more, less than 90%)
- O (catchweed) weedkilling efficacy grade (catchweed): 3 (weed kill ratio 40% or more, less than 70%)
- e (wheat) effect on crop grade (wheat [28]): 0 (weed kill ratio 5% or less (practically no effect))
- C (oval-leafed pondweed) weedkilling efficacy grade (oval-leafed pondweed [29]): 5 (weed kill ratio 90% or more, (practically complete withering))
- K (Indian mallow) weedkilling efficacy grade (Indian mallow [30]): 4 (weed kill ratio 70% or more, less than 90%)
- f (beet) effect on crop grade (beet [31]): 3 (weed kill ratio 40% or more, less than 70%)
- A (barnyard grass) weedkilling efficacy grade (barnyard grass [32]): 5 (weed kill ratio 90% or more, (practically complete withering))
- L (redroot pigweed) weedkilling efficacy grade (redroot pigweed [33]): 3 (weed kill ratio 40% or more, less than 70%)
- g (rapeseed) effect on crop grade (rapeseed [34]): 3 (weed kill ratio 40% or more, less than 70%)
- b (directly sown rice) effect on crop grade (directly sown rice [35]): 3 (weed kill ratio 40% or more, less than 70%)
- M (fig-leafed goosefoot) weedkilling efficacy grade (fig-leafed goosefoot [36]): 3 (weed kill ratio 40% or more, less than 70%)
- P (birds-eye speedwell) weedkilling efficacy grade (birds-eye speedwell [37]): 4 (weed kill ratio 70% or more, less than 90%)
- B (bulrush) weedkilling efficacy grade (bulrush [38]): 5 (weed kill ratio 90% or more, (practically complete withering))
- c (corn) effect on crop grade (corn [39]): 0 (weed kill ratio 5% or less (practically no effect))
- L (redroot pigweed) weedkilling efficacy grade (redroot pigweed [40]): 4 (weed kill ratio 70% or more, less than 90%)
- M (fig-leafed goosefoot) weedkilling efficacy grade (fig-leafed goosefoot [41]): 3 (weed kill ratio 40% or more, less than 70%)
- A (barnyard grass) weedkilling efficacy grade (barnyard grass [42]): 5 (weed kill ratio 90% or more, (practically complete withering))
